One data set has as its system HEK293 cells. In words: Access to the cell interior of fluorescent peptides, fluorescence microscopy. Type of data set: cell-based. The following applies: 24 hours, 10 µM, green fluorescent signal.
Data set [1] can be described thus: Conformational study by circular dichroism (helicity). The data set is classed as physicochemical. The following applies: for Helicity in 60:40 H2O/TFE (%) / Helicity in H2O (%): circular dichroism, 10 µM, 5°C. The procedure:
Circular dichroism spectra were recorded in aqueous solution and in a 60:40 H2O:trifluoroethanol (TFE) mixture. The concentration used was 10 µM and the temperature (T) was adjusted to 5°C. Measurements were made between 190 and 250 nm using a 0.1 cm optical pitch cell. The experiments were carried out at a scanning rate of 50 nm/min, a response time of 2 s and a bandwidth of 1 nm. The spectra obtained are the average of 4 sweeps to which the baseline was corrected.
To calculate helicity, the equation [θ]222/[θ]max. was used, where [θ]max = (-44000+250T) ([…]). As a finite length correction value (k), the value of k = 4 was taken, while n refers to the number of residues in the peptides. Table 6. Helicity observed by circular dichroism for the peptides studied.
On the technique in general: Circular dichroism is widely used to follow secondary structure.

Data set [2] is described as follows: Stability in human blood serum, UPLC-MS. The data set is classed as in vitro ADME. The following applies: 37°C. The procedure: A 1 mM dilution of the peptide in water was prepared and 0.5 ml was taken and mixed with 0.5 ml of human serum. The resulting solution was incubated for 72 hours at 37°C. After 24 hours and 72 hours, 120 µl aliquots were taken and treated with 20 µl trifluoroacetic acid to precipitate the proteins. After 30 minutes at 4°C, the mixture was centrifuged at 13000 g and 4°C. The supernatant, once filtered, was analysed by UPLC-MS using a C18 Bridge column (3.0 mm x 50 mm, 2.5 µm) and a gradient of 15 and 50% CH3CN (0.1% formic acid) in H2O (0.1% formic acid) over 5 minutes.

The target in another data set is T1, human Nav1.5 channels (Homo sapiens, UniProt Q14524).
T1 construct: expressed in transfected cells; host or cells: CHO (Chinese hamster ovary) cells
The data set can be described thus: INa density, whole-cell patch-clamp in CHO cells co-transfected with Nav1.5 and the cDNA encoding the peptide. Type of data set: cell-based. The settings on record: vs. cells transfected only with Nav1.5 channels, various membrane potentials, P<0.05. As to the method: (§1) To analyse the effect of the peptides designed in example 1 on INa and IK1, the cDNA that encodes SEQ ID NO: 3 or SEQ ID NO: 4, described in SEQ ID NO: 5 and 20, respectively, was cloned into a pcDNA3.1^(+)® vector (Invitrogen) for transfection of Chinese hamster ovary (CHO) cells that were in turn transfected with the cDNA that encodes the human Nav1.5 channels (SEQ ID NO: 21). The CHO cells were further co-transfected with the EBO-pcD leu 2 vector (0.5 µg), which encodes the expression of the CD8 surface antigen. The subsequent addition of anti-CD8 antibody, bonded to Dynabeads M450® microspheres, allowed the cells that had been transfected to be identified. […] The currents were recorded at 20-22°C using an Axopatch 200B amplifier, filtered at half the sampling frequency and stored in a computer for further analysis. […] The capacitive current artefacts generated after the application of pulses from 0 mV to +10 mV were recorded at 50 kHz (filtered at 10 kHz) to calculate the capacitance of the cell, the access resistance and the input impedance. […] INa was recorded by applying 50 ms pulses from a holding potential of -120 mV to potentials between -80 and +50 mV in 5 mV increments. […]
For orientation: In patch-clamp work, channel activity is measured electrically.

In data set [3] the test system is human cardiac Nav1.5 channels. In words: INa by whole-cell patch-clamp in CHO cells incubated with synthetic peptide. The data set is classed as cell-based. The following applies: CHO cells expressing Nav1.5, incubated 24 hours, 10 µM, vs untreated control cells. The procedure: as §1

The half-life is the time in which the quantity being followed falls by half.

Where a SMILES comes first, the peptide text is derived from it. The star is where a group is joined. FITC = O=C1OC2(c3ccc(O)cc3Oc3cc(O)ccc32)c2ccc(NC(=S)*)cc21; Palmitoyl = CCCCCCCCCCCCCCCC(=O)*

T1 sequence (Q14524 1-2015 isoform Q14524-2): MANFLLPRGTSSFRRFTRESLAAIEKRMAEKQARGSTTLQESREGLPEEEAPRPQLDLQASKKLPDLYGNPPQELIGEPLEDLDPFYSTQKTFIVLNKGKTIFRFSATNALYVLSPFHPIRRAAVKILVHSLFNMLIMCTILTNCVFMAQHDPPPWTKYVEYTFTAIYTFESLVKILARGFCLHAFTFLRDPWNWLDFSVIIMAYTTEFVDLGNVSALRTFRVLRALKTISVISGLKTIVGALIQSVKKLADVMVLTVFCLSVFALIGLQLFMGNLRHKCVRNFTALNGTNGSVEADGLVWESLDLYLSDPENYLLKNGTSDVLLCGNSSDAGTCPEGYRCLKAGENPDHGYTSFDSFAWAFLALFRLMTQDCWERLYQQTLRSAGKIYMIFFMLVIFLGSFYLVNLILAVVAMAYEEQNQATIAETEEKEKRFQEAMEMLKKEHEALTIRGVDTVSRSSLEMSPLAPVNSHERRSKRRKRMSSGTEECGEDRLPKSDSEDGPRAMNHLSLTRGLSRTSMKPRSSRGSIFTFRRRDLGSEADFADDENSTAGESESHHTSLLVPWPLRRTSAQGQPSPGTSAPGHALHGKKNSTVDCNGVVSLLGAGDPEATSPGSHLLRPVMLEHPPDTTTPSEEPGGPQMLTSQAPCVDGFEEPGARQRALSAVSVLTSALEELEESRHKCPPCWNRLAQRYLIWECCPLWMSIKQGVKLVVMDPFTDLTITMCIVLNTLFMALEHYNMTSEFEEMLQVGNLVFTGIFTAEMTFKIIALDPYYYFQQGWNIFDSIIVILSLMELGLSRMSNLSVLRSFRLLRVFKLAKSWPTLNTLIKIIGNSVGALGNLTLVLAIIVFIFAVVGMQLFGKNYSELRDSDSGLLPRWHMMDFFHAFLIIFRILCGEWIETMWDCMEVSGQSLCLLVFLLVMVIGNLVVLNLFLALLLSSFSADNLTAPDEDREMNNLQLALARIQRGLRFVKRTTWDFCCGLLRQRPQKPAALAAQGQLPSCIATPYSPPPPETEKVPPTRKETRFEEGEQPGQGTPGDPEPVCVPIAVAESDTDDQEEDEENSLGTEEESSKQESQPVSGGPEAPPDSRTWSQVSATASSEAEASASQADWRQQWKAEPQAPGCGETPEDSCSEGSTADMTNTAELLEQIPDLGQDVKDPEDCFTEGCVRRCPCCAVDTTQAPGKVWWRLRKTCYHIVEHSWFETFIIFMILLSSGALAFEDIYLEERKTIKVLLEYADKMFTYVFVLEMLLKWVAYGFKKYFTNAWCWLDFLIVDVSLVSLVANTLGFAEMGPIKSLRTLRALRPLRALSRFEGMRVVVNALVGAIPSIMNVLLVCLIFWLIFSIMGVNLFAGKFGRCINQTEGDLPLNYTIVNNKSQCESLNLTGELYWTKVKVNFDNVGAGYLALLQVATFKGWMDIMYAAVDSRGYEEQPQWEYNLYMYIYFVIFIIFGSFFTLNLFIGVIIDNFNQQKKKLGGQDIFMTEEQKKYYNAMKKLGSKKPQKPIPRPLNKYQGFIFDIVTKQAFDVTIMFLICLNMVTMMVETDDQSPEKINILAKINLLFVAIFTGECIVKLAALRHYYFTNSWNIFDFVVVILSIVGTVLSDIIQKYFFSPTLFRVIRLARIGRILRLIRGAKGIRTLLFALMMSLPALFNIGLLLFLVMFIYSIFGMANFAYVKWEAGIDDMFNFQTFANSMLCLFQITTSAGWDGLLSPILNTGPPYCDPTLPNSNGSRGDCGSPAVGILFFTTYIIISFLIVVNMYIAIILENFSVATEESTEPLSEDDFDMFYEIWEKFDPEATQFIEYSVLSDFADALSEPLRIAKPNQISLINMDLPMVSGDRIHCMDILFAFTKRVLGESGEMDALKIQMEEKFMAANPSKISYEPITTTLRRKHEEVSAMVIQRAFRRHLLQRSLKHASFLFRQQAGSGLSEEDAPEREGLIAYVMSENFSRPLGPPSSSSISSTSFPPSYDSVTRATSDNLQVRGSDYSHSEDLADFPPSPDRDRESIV

Consider `CC[C@H](C)[C@H](NC(=O)[C@H](C)NC(=O)[C@H](C)NC(=O)[C@H](CC(C)C)NC(=O)[C@H](CO)NC(=O)[C@H](CCC(=O)O)NC(=O)[C@H](CCCNC(=N)N)NC(=O)[C@@H](NC(=O)[C@H](Cc1ccccc1)NC(=O)[C@H](CCCNC(=N)N)NC(C)=O)[C@@H](C)O)C(=O)N[C@@H](CCC(=O)O)C(=O)N[C@@H](CCCCNC(=S)Nc1ccc2c(c1)C(=O)OC21c2ccc(O)cc2Oc2cc(O)ccc21)C(N)=O` [Ac-SEQ ID NO: 23(SF)-NH2, Ac-RFTRESLAAlEK(SF)-NH2] (Ac-RFTRESLAAIEK(FITC)-NH2), for which the “ability to penetrate into the cell interior” value in the data set with HEK293 cells was “not able to penetrate”.

Regarding `CCCCCCCCCCCCCCCC(=O)N[C@@H](CCCNC(=N)N)C(=O)N[C@@H](Cc1ccccc1)C(=O)N[C@H](C(=O)N[C@@H](CCCNC(=N)N)C(=O)N[C@@H](CCC(=O)O)C(=O)N[C@@H](CO)C(=O)N[C@@H](CC(C)C)C(=O)N[C@@H](C)C(=O)N[C@@H](C)C(=O)N[C@H](C(=O)N[C@@H](CCC(=O)O)C(=O)N[C@@H](CCCCNC(=S)Nc1ccc2c(c1)C(=O)OC21c2ccc(O)cc2Oc2cc(O)ccc21)C(N)=O)[C@@H](C)CC)[C@@H](C)O` [Pal-SEQ ID NO: 23(SF)-NH2, Pal-RFTRESLAAIEK(SF)-NH2] (Palmitoyl-RFTRESLAAIEK(FITC)-NH2), the “ability to penetrate into the cell interior” value in the data set on HEK293 cells is “good ability to penetrate”.

Take “Ac-FTRESLAAIEK-NH2 [Ac-SEQ ID NO: 25-NH2, Ac-FTRESLAAIEK-NH2]”: in data set [1], the “Helicity in 60:40 H2O/TFE (%)” value worked out at 46.2% and the “Helicity in H2O (%)” value was 10.7%. The “increase in helicity in H2O” value in data set [1] (compared with Ac-SEQ ID NO: 3-NH2) is given as 8%.

Turning to “Ac-FTRESLAAIEKR-NH2 [Ac-SEQ ID NO: 26-NH2, Ac-FTRESLAAIEKR-NH2]”, in data set [1], the “Helicity in 60:40 H2O/TFE (%)” value is listed as 35.5% and the “Helicity in H2O (%)” value was found to be 10.8%. In data set [2] (human blood serum diluted 50:50 with water, human blood serum/H2O (50:50), after 24 hours of incubation, read-out: peptide remained unchanged), the remaining at 24 h, 0.5 mM came out at 82%. In data set [2] (human blood serum, estimated taking into account serum concentration of 50%), the half-life is 27 h.

“Ac-RFTRESLAAIE-NH2 [Ac-SEQ ID NO: 3-NH2, Ac-RFTRESLAAIE-NH2]”: in data set [1], the “Helicity in 60:40 H2O/TFE (%)” value is recorded as 32.3% and the “Helicity in H2O (%)” value was found to be 2.7%.

Take “EKRMAEKQARGSTTL (listed as Homo sapiens) [SEQ ID NO: 4, 15-amino acid peptide, amino acids 25-39 of human Nav1.5]”: the “density of INa” value in the data set with human Nav1.5 channels is given as “did not”.

Regarding “Pal-FTRESLAAIEK-NH2 (Palmitoyl-FTRESLAAIEK-NH2; SMILES CCCCCCCCCCCCCCCC(=O)N[C@@H](Cc1ccccc1)C(=O)N[C@H](C(=O)N[C@@H](CCCNC(=N)N)C(=O)N[C@@H](CCC(=O)O)C(=O)N[C@@H](CO)C(=O)N[C@@H](CC(C)C)C(=O)N[C@@H](C)C(=O)N[C@@H](C)C(=O)N[C@H](C(=O)N[C@@H](CCC(=O)O)C(=O)N[C@@H](CCCCN)C(N)=O)[C@@H](C)CC)[C@@H](C)O) [Pal-SEQ ID NO: 25-NH2]”, the INa result in data set [3] is given as “statistically significantly increase INa”.

Turning to “Pal-RFTRESLAAIEK-NH2 (Palmitoyl-RFTRESLAAIEK-NH2; SMILES CCCCCCCCCCCCCCCC(=O)N[C@@H](CCCNC(=N)N)C(=O)N[C@@H](Cc1ccccc1)C(=O)N[C@H](C(=O)N[C@@H](CCCNC(=N)N)C(=O)N[C@@H](CCC(=O)O)C(=O)N[C@@H](CO)C(=O)N[C@@H](CC(C)C)C(=O)N[C@@H](C)C(=O)N[C@@H](C)C(=O)N[C@H](C(=O)N[C@@H](CCC(=O)O)C(=O)N[C@@H](CCCCN)C(N)=O)[C@@H](C)CC)[C@@H](C)O) [Pal-SEQ ID NO: 23-NH2]”, the INa entry in data set [3] is “statistically significantly increase INa”.

The record behind these values is patent EP4786486A1, “PEPTIDES FOR TREATING CARDIAC DISEASES” (Universidad Complutense De Madrid, priority 2023, dated 2025).
